Experimental data taken from ChEMBL document CHEMBL5678797, “AZD7762, a novel checkpoint kinase inhibitor, drives checkpoint abrogation and potentiates DNA-targeted therapies” (Mol Cancer Ther, 2008).
Active and inactive are the calls of the source. The calls are words filed in the database; no cut-off is given here.

Assays:
SW-620 [1] = assay: Induction of cell cycle arrest in human SW620 cells assessed as increase in cdc25A level at 0.1 uM measured after 8 hrs by Western blot analysis; assay type: functional, cell-based
SW-620 [2] = assay: Antitumor activity against human SW620 cells xenografted in athymic mouse model assessed as complete tumor regression at 50 mg/kg measured after 17 to 94 days post tumor implantation by caliper method; assay type: functional, organism-based; conditions: time 17-94 day
SW-620 [3] = assay: Antitumor activity against human SW620 cells xenografted in athymic mouse model assessed as tumor free survival at 50 mg/kg measured after 17 to 94 days post tumor implantation by caliper method; assay type: functional, organism-based; conditions: time 17-94 day

Row | Compound | Activity (SW-620 [1]) | Activity (SW-620 [2]) | Activity (SW-620 [3])
1 | Nc1ccn([C@@H]2O[C@H](CO)[C@@H](O)C2(F)F)c(=O)n1 | inactive |  | 
2 | CCc1c2c(nc3ccc(OC(=O)N4CCC(N5CCCCC5)CC4)cc13)-c1cc3c(c(=O)n1C2)COC(=O)[C@]3(O)CC |  | inactive | inactive
